Data on one molecule can be found in patent US20230094545A1, “S1P RECEPTOR MODULATORS” (AKAAL PHARMA PTY LTD, priority 2020, published 2023).

For data set [1], the system named is atopic dermatitis. Kind of data set: Topical treatment of atopic dermatitis patients. In kind it is in vivo, human. As to the method:
(§1) Atopic dermatitis patients were treated with the compound of Formula I@60 mg daily dosing as topical treatment for 28 consecutive days.

The nature of data set [2]: Topical treatment of atopic dermatitis patients. In kind it is in vivo, human. Conditions: human, in vivo; by week 3, 60 mg daily topical; read-out: systemic exposure. Here is the method: as §1

In the case of `CCCOc1ccc(-c2nc(-c3ccc4oc(C(N)(CO)CO)cc4c3)no2)cc1Cl` [compound of formula (I)], in data set [1] (60 mg daily topical, 28 days), the “EASI score and pruritus score” value is on record as “reduction compared to baseline”; the absolute lymphocyte count entry is “no systemic change in the absolute lymphocyte count”; the tolerability entry is listed as “well tolerated”. Further, in data set [1] (by week 3), the lymphopenia result is recorded as “no lymphopenia event”. Further, the concentration at 3 week in data set [2] was in the range of 1 to 2.5 ng/mL.
